The values that follow come from US5486541A (Teva Pharmaceutical Industries, Ltd., priority 1991, dated 1996).

The subject of series [1] is MAO-A. Nature of the series: Inhibition of MAO Activity Ex-vivo: Acute Treatment, brain, MAO-A. Format: in vivo, rat (male Sprague-Dawley derived). The note with it: rat, ip or po, 2 hours after dosing, hydrochloride, 120 min.
The target of series [2] is T1, MAO-B (Rattus norvegicus, UniProt P19643).
T1 sequence (P19643 1-520): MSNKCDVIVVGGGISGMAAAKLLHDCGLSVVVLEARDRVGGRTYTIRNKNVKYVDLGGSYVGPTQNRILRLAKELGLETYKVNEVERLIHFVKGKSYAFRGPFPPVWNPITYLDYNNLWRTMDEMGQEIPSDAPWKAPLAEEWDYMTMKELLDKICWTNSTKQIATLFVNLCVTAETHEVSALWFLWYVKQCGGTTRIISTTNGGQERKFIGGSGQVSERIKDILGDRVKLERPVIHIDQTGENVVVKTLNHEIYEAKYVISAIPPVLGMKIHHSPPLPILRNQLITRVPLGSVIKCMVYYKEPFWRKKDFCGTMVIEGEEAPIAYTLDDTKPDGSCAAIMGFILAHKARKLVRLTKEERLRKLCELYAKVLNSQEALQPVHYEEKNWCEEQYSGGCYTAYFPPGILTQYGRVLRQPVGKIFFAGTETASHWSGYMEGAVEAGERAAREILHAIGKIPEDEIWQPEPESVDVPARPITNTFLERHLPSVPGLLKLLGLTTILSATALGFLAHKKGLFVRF
Kind of series: biochemical. Format: biochemical.

For series [3], the system named is MAO-A. Kind of series: Inhibition of MAO Activity Ex-vivo: Acute Treatment, liver, MAO-A. The note with it: rat, ip or po, 2 hours after dosing. The format is in vivo, rat (male Sprague-Dawley derived). The procedure:
(§1) These experiments were performed essentially according to the protocol of K. F. Tipton and M. B. H. Youdim in CIBA Symposium No. 39, Editors: G. E. W. Wolstenholme and J. Knight, Elsevier, Amsterdam, 1976, pp. 393-403. The MAO enzyme source was a homogenate of rat brain in 0.3M sucrose which was centrifuged at 600 g for 15 minutes. The supernatant was diluted appropriately in 0.05M phosphate buffer and preincubated with serial dilutions of compounds of interest which are listed below for 20 minutes at 37° C. ^14 C-labeled substrates (2-phenylethylamine, hereinafter PEA; 5-hydroxytryptamine, hereinafter 5-HT) were then added and the incubation continued for a further 20 minutes (PEA) or 30-45 minutes (5-HT). Substrate concentrations used were 20 μM (PEA) or 1 mM (5-HT). In the case of PEA the enzyme concentration was chosen so that not more than 10% of the substrate was metabolized during the course of the reaction. The reaction was then stopped by the addition of tranylcypromine (to final concentration of 1 mM) and the incubate filtered over a small column of Amberlite CG-50; buffered to pH 6.3. The column was washed with 1.5 ml water, the eluates pooled and the radioactive content determined by liquid scintillation spectrometry. Since the amine substrates are totally retained on the column, radioactivity in the eluate indicates the production of neutral and acidic metabolites formed as a result of MAO activity. Activity of MAO in the sample was expressed as a percentage of control activity in the absence of inhibitors after subtraction of appropriate blank values. The activity determined using PEA as a substrate is referred to as MAO B activity, and that determined using 5-HT as a substrate is referred to as MAO A activity.
(§2) Rats (male Sprague-Dawley derived) weighing 250±20 g were treated with the desired compound by intraperitoneal injection (ip) or oral gavage (po) and decapitated 2 hours later. Groups of three rats were used for each dose level of the compound and MAO activity was determined in the brain and liver using the general technique described above. The amount of protein in each incubation was determined using the Folin-Lowry method, and enzyme activity was calculated as nmol substrate metabolized per hour incubation for each mg protein. Activity of MAO in tissues from animals treated with inhibitors was expressed as a percentage of the enzyme activity in a group of control animals which were administered the vehicle alone (water in the case of oral gavage, or 0.9% saline in the case of intraperitoneal injection) and killed as above.

In series [4] the target is T2, MAO-A (Rattus norvegicus, UniProt P21396).
T2 sequence (P21396 1-526): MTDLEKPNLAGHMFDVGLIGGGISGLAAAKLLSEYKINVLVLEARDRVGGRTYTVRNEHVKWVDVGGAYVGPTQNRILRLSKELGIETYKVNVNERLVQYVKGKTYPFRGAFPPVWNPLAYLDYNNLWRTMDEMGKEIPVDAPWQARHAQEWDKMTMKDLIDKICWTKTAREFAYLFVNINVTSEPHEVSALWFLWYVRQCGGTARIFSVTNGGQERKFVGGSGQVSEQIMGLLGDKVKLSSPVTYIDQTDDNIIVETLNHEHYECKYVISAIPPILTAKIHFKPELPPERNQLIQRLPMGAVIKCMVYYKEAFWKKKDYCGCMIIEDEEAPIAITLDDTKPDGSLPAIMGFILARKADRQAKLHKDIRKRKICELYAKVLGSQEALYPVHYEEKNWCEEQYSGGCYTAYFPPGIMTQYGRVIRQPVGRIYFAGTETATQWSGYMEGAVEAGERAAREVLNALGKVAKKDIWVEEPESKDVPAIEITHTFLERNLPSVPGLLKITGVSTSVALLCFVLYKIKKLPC
Nature of the series: biochemical. The note with it: rat brain homogenate; 20 min preincubation at 37° C.; 5-HT 1 mM; read-out: IC50 for Inhibition of MAO-A in Brain Homogenates.

Series [5] deals with MAO-B. Kind of series: Inhibition of MAO Activity Ex-vivo: Acute Treatment, liver, MAO-B. Format: in vivo, rat (male Sprague-Dawley derived). On the procedure: as §1, §2
In series [6] the test system is blood pressure response to tyramine. Kind of series: Tyramine Potentiation in Vivo (blood pressure response to tyramine). Also on record: species or system rat. On the procedure:
On the previous day a tail artery cannulation was performed to enable direct blood pressure measurements. On the experimental day the cannulae were connected to pressure transducers. The animals were unrestrained and were kept in a glass sided open top tank during the pressure measurements. […] The desired compound was administered 30 minutes after the last dose of tyramine. Tyramine was administered again, in increasing doses, as described above, one hour after the desired compound was administered. […] The tyramine potentiating effect was calculated as a ratio between the areas under the curve of blood pressure measured with tyramine alone (20 mg/kg) and that measured after administration of the desired compounds and tyramine.

In series [7] the test system is MAO-B. Kind of series: Inhibition of MAO Activity Ex-vivo: Acute Treatment, brain, MAO-B. The format is in vivo, rat (male Sprague-Dawley derived). The note with it: hydrochloride; for ED-50 BRAIN MAO-B: rat, ip or po, 2 hours after dosing, 120 min.
The next series relates to Parkinson's patients. The note with it: with L-Dopa (and decarboxylase inhibitor); cited from earlier work.
For series [8] the following is noted: at doses causing nearly complete inhibition of MAO-B; Elsworth et al.; cited from earlier work.

“Also recorded” adds a separate entry of the source.

For `C#CCNC1CCc2ccc(F)cc21.Cl` (single isomer, unassigned; (+)) [(+)-6-F, (+)-6-Fluoro-N-propargyl-1-aminoindan hydrochloride], the “ED-50 BRAIN MAO-A” value in the series with MAO-A [1] is on record as 21.3 mg/kg. Besides, the “Selectivity MAO-A/MAO-B (in vitro IC50)” value at MAO-B [2] turned out to be 1244. Moreover, the “MAO-B selectivity in vitro (in words)” value on MAO-B [2] (in vitro) is “much more selective than the parent non-fluorinated compound and more selective than the other fluorinated derivatives”. The IC50 (in general, the point on the concentration scale where inhibition reaches its midpoint) is 0.22 nM at MAO-B [2] (rat brain homogenate, 20 min preincubation at 37° C., PEA 20 μM, read-out: IC50 for Inhibition of MAO-B in Brain Homogenates) and 2800 nM at MAO-A [4]. Also, in the series with MAO-A [3], the “ED-50 LIVER MAO-A” value came out at 5.2 mg/kg. Besides, in the series with MAO-B [5] (rat, ip or po, 2 hours after dosing, liver, hydrochloride, 120 min), the “ED-50 LIVER MAO-B” value was found to be 0.13 mg/kg. For the same compound, in the series with MAO-B [5] (ratio of ED-50 values, rat liver, ex vivo), the “LIVER MAO-A/MAO-B (measure of selectivity)” value stood at 40. The “Potentiation of blood pressure response to tyramine” value in series [6] (compound 5 mg/kg orally, tyramine 20 mg/kg orally, ratio of areas under the curve of blood pressure) turned out to be 1.2 fold. Also, the “tyramine potentiating effect (in words)” value in series [6] (rat, 5 mg/kg oral, listed as (+)-6-F-N-propargyl-1-aminoindan, hydrochloride, 5 mg/kg) was “lowest potentiating effect as compared to the (+)-5-F and (+)-4-F derivatives; also recorded: does not cause significant potentiation of tyramine; also recorded: a dose 35 times higher results practically in no tyramine potentiation”. The “ED-50 BRAIN MAO-B” value in the series with MAO-B [7] and with MAO-B [7] (listed as (+)-6-F-N-propargyl-1-aminoindan) was 0.14 mg/kg throughout. Also, the “BRAIN MAO-A/MAO-B (measure of selectivity)” value in the series on MAO-B [7] (ratio of ED-50 values, rat brain, ex vivo) worked out at 152.
`C#CCN(C)[C@H](C)Cc1ccccc1` [(-)-deprenyl]: in the series with Parkinson's patients, the “clinical effect on addition to L-Dopa treatment (in words)” value was “improvements in akinesia and overall functional capacity as well as the elimination of "on-off" type fluctuations; also recorded: enhances and prolongs the effect of L-Dopa”. The “"cheese effect" of (-)-deprenyl (in words)” value in series [8] is listed as “not causing the "cheese effect"”.
